Where two headings read alike, the source gives them in different places.
Target: human orexin-1 receptor (Homo sapiens (Human), UniProt O43613)
Experiment: In vitro assay: intracellular calcium measurements (FLIPR), antagonistic activity
Type: cell-based
Conditions: CHO cells, 3 nM orexin-A, marked values are geometric means of n = 2-6, read-out: IC50 OX1
Procedure: In Vitro Assay: Intracellular Calcium Measurements:
Chinese hamster ovary (CHO) cells expressing the human orexin-1 receptor and the human orexin-2 receptor, respectively, are grown in culture medium (Ham F-12 with L-Glutamine) containing 300 µg/ml G418, 100 U/ml penicillin, 100 µg/ml streptomycin and 10% heat inactivated fetal calf serum (FCS). The cells are seeded at 20,000 cells/well into 384-well black clear bottom sterile plates (Greiner). The seeded plates are incubated overnight at 37° C. in 5% CO2.
Fluorescence is measured for each well at 1 second intervals, and the height of each fluorescence peak is compared to the height of the fluorescence peak induced by 3 nM orexin-A with vehicle in place of antagonist. […] Optimized conditions were achieved by adjustment of pipetting speed and cell splitting regime. The calculated IC50 values may fluctuate depending on the daily cellular assay performance. Fluctuations of this kind are known to those skilled in the art.

Chain of human orexin-1 receptor (O43613 whole entry): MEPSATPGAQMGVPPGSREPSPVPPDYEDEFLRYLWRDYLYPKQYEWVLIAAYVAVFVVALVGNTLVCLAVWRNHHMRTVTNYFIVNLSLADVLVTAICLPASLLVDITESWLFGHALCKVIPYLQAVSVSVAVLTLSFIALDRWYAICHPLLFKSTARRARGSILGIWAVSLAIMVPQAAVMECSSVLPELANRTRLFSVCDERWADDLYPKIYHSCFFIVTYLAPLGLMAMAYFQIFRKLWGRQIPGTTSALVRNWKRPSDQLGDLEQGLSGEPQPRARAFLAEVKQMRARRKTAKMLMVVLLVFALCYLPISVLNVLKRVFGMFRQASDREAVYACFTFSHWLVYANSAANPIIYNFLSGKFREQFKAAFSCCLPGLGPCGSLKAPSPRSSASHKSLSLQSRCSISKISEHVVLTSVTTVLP

Structure (SMILES) | IC50 (compound incubation time of 10 min) [nM] | IC50 (compound incubation 120 min) [nM]
COc1cccc(F)c1[C@@H]1C[C@H](O)C(=O)N1Cc1ccc(OC(F)(F)F)cc1 (racemic) [Example 265, rac-(3S*,5S*)-5-(2-fluoro-6-methoxyphenyl)-3-hydroxy-1-(4-(trifluoromethoxy)benzyl)pyrrolidin-2-one] | 730 | –
COc1cccc(F)c1[C@@H]1C[C@@H](O)C(=O)N1Cc1ccc(OC(F)(F)F)cc1 (racemic) [Example 293, rac-(3R*,5S*)-5-(2-fluoro-6-methoxyphenyl)-3-hydroxy-1-(4-(trifluoromethoxy)benzyl)pyrrolidin-2-one] | – | 2750
COc1cccc(Cl)c1[C@@H]1C[C@@H](O)C(=O)N1Cc1ccc(OC(F)(F)F)cc1 (racemic) [Example 294, rac-(3R*,5S*)-5-(2-chloro-6-methoxyphenyl)-3-hydroxy-1-(4-(trifluoromethoxy)benzyl)pyrrolidin-2-one] | – | 2440
COc1ccc2ccccc2c1[C@@H]1C[C@H](F)C(=O)N1Cc1ccc(OC(F)(F)F)cc1 (racemic) [Example 315, rac-(3S*,5S*)-3-fluoro-5-(2-methoxynaphthalen-1-yl)-1-(4-(trifluoromethoxy)benzyl)pyrrolidin-2-one] | – | 1200
COc1c(F)ccc(F)c1[C@@H]1C[C@@H](Cl)C(=O)N1Cc1ccc(OC(F)(F)F)cc1 (racemic) [Example 317, rac-(3R*,5S*)-3-chloro-5-(3,6-difluoro-2-methoxyphenyl)-1-(4-(trifluoromethoxy)benzyl)pyrrolidin-2-one] | – | 1070
COc1c(F)ccc(F)c1[C@@H]1C[C@H](Cl)C(=O)N1Cc1ccc(OC(F)(F)F)cc1 (racemic) [Example 320, rac-(3S*,5S*)-3-chloro-5-(3,6-difluoro-2-methoxyphenyl)-1-(4-(trifluoromethoxy)benzyl)pyrrolidin-2-one] | – | 1050
O=C1[C@H](Cl)C[C@@H](c2cccc3c2OCCO3)N1Cc1ccc(OC(F)(F)F)cc1 (racemic) [Example 322, rac-(3R*,5S*)-3-chloro-5-(2,3-dihydrobenzo[b][1,4]dioxin-5-yl)-1-(4-(trifluoromethoxy)benzyl)pyrrolidin-2-one] | – | 1080
COc1cccc(C)c1[C@@H]1C[C@H](F)C(=O)N1Cc1ccc(OC(F)(F)F)cc1 (racemic) [Example 325, rac-(3S*,5S*)-3-fluoro-5-(2-methoxy-6-methylphenyl)-1-(4-(trifluoromethoxy)benzyl)pyrrolidin-2-one] | – | 1380
CCOc1c(F)cccc1[C@@H]1C[C@@H](Cl)C(=O)N1Cc1ccc(OC(F)(F)F)cc1 (racemic) [Example 327, rac-(3R*,5S*)-3-chloro-5-(2-ethoxy-3-fluorophenyl)-1-(4-(trifluoromethoxy)benzyl)pyrrolidin-2-one] | – | 1060
CCOc1ccc(F)c(F)c1[C@@H]1C[C@H](Cl)C(=O)N1Cc1ccc(OC(F)(F)F)cc1 (racemic) [Example 339, rac-(3S*,5S*)-3-chloro-5-(6-ethoxy-2,3-difluorophenyl)-1-(4-(trifluoromethoxy)benzyl)pyrrolidin-2-one] | – | 816
CCOc1cc(F)ccc1[C@@H]1C[C@H](F)C(=O)N1Cc1ccc(OC(F)(F)F)cc1 (racemic) [Example 344, rac-(3S*,5S*)-5-(2-ethoxy-4-fluorophenyl)-3-fluoro-1-(4-(trifluoromethoxy)benzyl)pyrrolidin-2-one] | – | 1800
CCOc1ccc(F)c(F)c1[C@@H]1C[C@@H](Cl)C(=O)N1Cc1ccc(OC(F)(F)F)cc1 (racemic) [Example 346, rac-(3R*,5S*)-3-chloro-5-(6-ethoxy-2,3-difluorophenyl)-1-(4-(trifluoromethoxy)benzyl)pyrrolidin-2-one] | – | 2850
CCOc1cccc(Cl)c1[C@@H]1C[C@@H](O)C(=O)N1Cc1ccc(OC(F)(F)F)cc1 (racemic) [Example 427, rac-(3R*,5S*)-5-(2-chloro-6-ethoxyphenyl)-3-hydroxy-1-(4-(trifluoromethoxy)benzyl)pyrrolidin-2-one] | – | 1230
COc1cccc(F)c1[C@@H]1C[C@@H](O)C(=O)N1Cc1cccc(OC(F)(F)F)c1 (racemic) [Example 430, rac-(3R*,5S*)-5-(2-fluoro-6-methoxyphenyl)-3-hydroxy-1-(3-(trifluoromethoxy)benzyl)pyrrolidin-2-one] | – | 5360
COc1cccc(OC)c1C1CCCC(=O)N1Cc1ccc2ccccc2n1 (stereo not shown) [Example 4, 6-(2,6-dimethoxyphenyl)-1-(quinolin-2-ylmethyl)piperidin-2-one] | – | 174
COc1cccc(OC)c1C1CCCC(=O)N1Cc1ccc2ccccc2n1 (stereo not shown) [Example 4a, 6-(2,6-dimethoxyphenyl)-1-(quinolin-2-ylmethyl)piperidin-2-one] | – | 16

More lines, in order of falling IC50 (compound incubation 120 min), values ahead:

IC50 (compound incubation time of 10 min) [nM] | IC50 (compound incubation 120 min) [nM] | Structure (SMILES)
– | 885 | CCOc1c(F)cccc1[C@@H]1C[C@H](Cl)C(=O)N1Cc1ccc(OC(F)(F)F)cc1 (racemic) [Example 329, rac-(3S*,5S*)-3-chloro-5-(2-ethoxy-3-fluorophenyl)-1-(4-(trifluoromethoxy)benzyl)pyrrolidin-2-one]
– | 739 | COc1ccc(F)c(OC)c1[C@@H]1C[C@@H](Cl)C(=O)N1Cc1ccc(OC(F)(F)F)cc1 (racemic) [Example 328, rac-(3R*,5S*)-3-chloro-5-(3-fluoro-2,6-dimethoxyphenyl)-1-(4-(trifluoromethoxy)benzyl)pyrrolidin-2-one]
– | 724 | CCOc1cccc(F)c1[C@@H]1C[C@H](F)C(=O)N1Cc1ccc(OC(F)(F)F)c(Cl)c1 (racemic) [Example 461, rac-(3S*,5S*)-1-(3-chloro-4-(trifluoromethoxy)benzyl)-5-(2-ethoxy-6-fluorophenyl)-3-fluoropyrrolidin-2-one]
– | 678 | CC(C)Oc1cccc(F)c1[C@@H]1C[C@H](F)C(=O)N1Cc1ccc(OC(F)(F)F)cc1 (racemic) [Example 407, rac-(3S*,5S*)-3-fluoro-5-(2-fluoro-6-isopropoxyphenyl)-1-(4-(trifluoromethoxy)benzyl)pyrrolidin-2-one]
– | 563 | O=C1[C@@H](Cl)C[C@@H](c2cccc3c2OCCO3)N1Cc1ccc(OC(F)(F)F)cc1 (racemic) [Example 307, rac-(3S*,5S*)-3-chloro-5-(2,3-dihydrobenzo[b][1,4]dioxin-5-yl)-1-(4-(trifluoromethoxy)benzyl)pyrrolidin-2-one]
– | 405 | CCOc1cccc(F)c1[C@@H]1C[C@H](Cl)C(=O)N1Cc1ccc(OC(F)(F)F)c(Cl)c1 (racemic) [Example 462, rac-(3S*,5S*)-3-chloro-1-(3-chloro-4-(trifluoromethoxy)benzyl)-5-(2-ethoxy-6-fluorophenyl)pyrrolidin-2-one]
– | 323 | CC(C)Oc1cccc(F)c1[C@@H]1C[C@H](Cl)C(=O)N1Cc1ccc(OC(F)(F)F)cc1 (racemic) [Example 409, rac-(3S*,5S*)-3-chloro-5-(2-fluoro-6-isopropoxyphenyl)-1-(4-(trifluoromethoxy)benzyl)pyrrolidin-2-one]
– | 227 | COc1ccc(F)c(OC)c1[C@@H]1C[C@H](Cl)C(=O)N1Cc1ccc(OC(F)(F)F)cc1 (racemic) [Example 330, rac-(3S*,5S*)-3-chloro-5-(3-fluoro-2,6-dimethoxyphenyl)-1-(4-(trifluoromethoxy)benzyl)pyrrolidin-2-one]
– | 23 | COc1cccc(OC)c1[C@@H]1C[C@@H](F)C(=O)N1Cc1ccc2oc3ccccc3c2c1 (racemic) [Example 368, rac-(3R*,5S*)-1-(dibenzo[b,d]furan-2-ylmethyl)-5-(2,6-dimethoxyphenyl)-3-fluoropyrrolidin-2-one]
